Laboratory results published in paper PMC9257626 (RSC Chemical Biology, 2022).
Counter-ions that a name gives are not always drawn.

Target: GAPDH (endogenous, HeLa / Jurkat) (Homo sapiens, UniProt P04406)
Format: biochemical

Chain of GAPDH (endogenous, HeLa / Jurkat) (P04406 2-335 limits assumed): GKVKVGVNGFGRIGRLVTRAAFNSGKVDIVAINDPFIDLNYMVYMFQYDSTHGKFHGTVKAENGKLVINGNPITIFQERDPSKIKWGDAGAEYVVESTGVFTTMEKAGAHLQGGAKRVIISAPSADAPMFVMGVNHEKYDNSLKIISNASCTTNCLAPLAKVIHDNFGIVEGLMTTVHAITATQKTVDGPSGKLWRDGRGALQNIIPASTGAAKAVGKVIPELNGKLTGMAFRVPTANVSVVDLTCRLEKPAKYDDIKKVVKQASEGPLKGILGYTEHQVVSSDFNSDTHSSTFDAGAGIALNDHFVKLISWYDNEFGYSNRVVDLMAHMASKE

SMILES: O=C(O)C(=O)CBr [3-BP, 3-bromopyruvate]
- loss of SEC1 labeling at 5 μM: 3-BP, IA and DMF showed complete loss of SEC1 labeling even at the lower concentration

SMILES: COC(=O)/C=C/C(=O)OC [DMF, dimethyl fumarate]
- loss of SEC1 labeling at 5 μM: 3-BP, IA and DMF showed complete loss of SEC1 labeling even at the lower concentration
